From patent publication US9737525B2, “Small molecule activators of NRF2 pathway” (The General Hospital Corporation, priority 2013, dated 2017)

How the values were obtained:
N9 microglial cells = assay: ROS/RNI assays in stimulated N9 microglial cells; type: cell-based; conditions: LPS- and TNFα-activated microglial cells, 20 hr
Experimental: N9 microglial cells were cultured in RPMI medium containing Glutamax (Invitrogen) and supplemented with 10% FBS (Endotoxin levels lower than 10 EU/ml). Cells were plated in 96 well plates (5×10^4 per well) and cultured overnight before stimulation with LPS (100 ng/ml) and TNFα (10 ng/ml) for 20 hr in medium supplemented with DMSO or with the tested compounds. ROS were detected by flow cytometry after microglia incubation with […] of 5-(and-6)-chloromethyl-2′,7′-dichlorodihydrofluorescein diacetate, acetyl ester (CM-H2DCFDA) (Invitrogen) for 20 min. The production of NO by iNOS was measured indirectly by assaying nitrites in the culture supernatant using the Griess reaction [Liu, 2013]. Briefly, […] of supernatants were incubated with equal amount of Griess reagent (1% sulphanilamide, 0.1% naphthylethylenediamine in 2% phosphoric acid solution) and the absorbance read at 550 nm after 20 min of incubation at room temperature.

[1] = system: primary cortical neurons expressing 140Q full-length mutant huntingtin; assay: Neuronal viability assay (MTT), wild type and HD primary cortical neurons; type: cell-based, mouse; conditions: for Cytotoxicity in primary neurons: 0.5 μM and higher
Experimental: Embryonic tissue from wild type and 140Q mouse brains (E15-E17 days into pregnancy) was used to isolate and plate cortical neurons as described (Valencia et al., 2013). Neurons were plated at 8×10^5 cell/ml in a 24-well plate supplemented with 25 μM of L-glutamate and 10 μM of 2-β-mercapto-ethanol (Gibco). Plates were previously coated with poly-L-lysine (30-70 kDa, SIGMA) in borate buffer at pH 8.0 and coated again using DMEM/F12+FBS 10% for 2 hours prior to plating. After 3 days in culture, neurons were treated with 10 μM of β-D-cytosine arabinofurinoside for 24 hours to prevent the proliferation of non-neuronal cells.
Neurons were supplemented with MIND4 at different concentrations 0, 0.1, 0.25 and 0.5 μM at days in vitro 4, 6 and 8 (FIG. 3A). […] To maintain drug concentrations, half of the culture media was replenished with fresh media at each time point and MIND4 treatment doses were adjusted accordingly. Cell viability was measured at DIV 10 as previously described based on the ability of viable neurons to transformed MTT (3-(4,5-Dimethylthiazol-2-yl)-2,5-diphenyltetrazolium bromide) into formazan blue crystals (Valencia et al., 2013). Neurons were incubated with 0.5 mg/ml of MTT for 15 minutes, media was then discarded and formazan blue crystals were dissolved in DMSO 100% and read at 540 nm in a Vector plate reader. Results are expressed as Mean±Standard deviation absorbance units at 540 nm (AU). P values were obtained using a Student's t-test from an N=6 wells per condition for treated wild type and HD neurons.
Cell survival was measured as MTT transformation at 10 days in vitro (DIV). Neurons were treated three times with the compounds at 4, 6 and 8 DIV at the indicated concentrations. Two independent experiments were performed with a total of 13 embryos per genotype, 6 WT and 7 HD respectively; 6 wells were used for each experimental condition (compound dose).

[2] = system: 5×-ARE promoter-luciferase reporter; assay: 5×-ARE-luciferase reporter assay in primary corticostriatal co-cultures; type: cell-based, mouse; conditions: 5 μM, 4 hr or 16 hr
Experimental: Primary corticostriatal neuronal co-cultures were prepared from E18 mouse brains as previously described [Kaltenbach, 2010]. Mice were maintained in accordance with Duke University Medical Center Institutional Animal Care and Use Committee guidelines. For 5×-ARE-luciferase reporter assays, neurons were transfected following their isolation (Nucleofector, Lonza) with 2.5 μg Cignal Antioxidant Response Reporter dual luciferase plasmids (Qiagen/SABiosciences) and plated onto pre-established glial beds in 96 well plates. After 4 days in culture at 37° C. under 5% CO2, co-cultures were treated with the indicated compounds for 4 hr or 16 hr then harvested and read for luminescence from firefly and Renilla luciferases according to the Dual Glo luciferase protocol (Promega) using a SpectraMaxL luminometer (Molecular Devices). Each sample was measured in technical triplicate. For quantitative RT-PCR (qPCR) of ARE target genes, corticostriatal co-cultures were prepared as described above and, after 4 days in culture, treated for 6 hr with the indicated compounds followed by RNA harvesting according to the Absolutely RNA miniprep protocol (Agilent Technologies). Purified RNA was converted to cDNA using random hexamers and SuperScript First-Strand RT-PCR Synthesis (Invitrogen). […] Ct values were determined using primer sets against ARE genes Hmox1, Gclc and Nqo1]. […]

[3] = 0.25 μM, treated at 4, 6 and 8 DIV, MTT at 10 DIV

| SMILES | Production of RNI (nitrites in supernatants) (N9 microglial cells) | ROS levels (N9 microglial cells) | Survival of HD neurons ([1]; 0.1 μM) | Survival of HD neurons ([1]; 0.1 μM and 0.25 μM, treated at DIV 4, 6, 8, MTT at DIV 10) | Survival of HD neurons [1, 3] | Cytotoxicity in primary neurons [1] | Effect on control cortical neurons from wild type mice ([1]; 7 days of treatment) | Transcriptional rate of 5×-ARE promoter-luciferase reporter [2] |
| --- | --- | --- | --- | --- | --- | --- | --- | --- |
| O=[N+]([O-])c1ccc(Sc2nnc(COc3ccccc3)n2-c2ccccc2)c2ncccc12 [MIND4, 5-nitro-8-{[5-(phenoxymethyl)-4-phenyl-4H-1,2,4-triazol-3-yl]thio}quinoline] | reduced the production of RNI | reduced ROS levels | partially improved survival | improved survival of HD neurons at both doses | enhanced survival of HD neurons | cytotoxic | No effects | able to induce increases in the transcriptional rate |
| O=[N+]([O-])c1ccc(Sc2nnc(COc3ccccc3)n2-c2ccccc2)nc1 [MIND4-17] | reduced the production of RNI | reduced ROS levels |  |  | enhanced survival of HD neurons | cytotoxic |  | able to induce increases in the transcriptional rate |
